Data taken from patent publication US20090203716A1, “Pyrimidine low molecular weight ligands for modulating hormone receptors” (The Government of the United States of America as …, priority 2006, published 2009).

Experiments:
[1] = molecular target: T1, FSHR (Homo sapiens, UniProt P23945); assay: intracellular cAMP accumulation in HEK-EM 293 cells stably expressing FSHR; type: cell-based
T1 sequence (P23945 18-695): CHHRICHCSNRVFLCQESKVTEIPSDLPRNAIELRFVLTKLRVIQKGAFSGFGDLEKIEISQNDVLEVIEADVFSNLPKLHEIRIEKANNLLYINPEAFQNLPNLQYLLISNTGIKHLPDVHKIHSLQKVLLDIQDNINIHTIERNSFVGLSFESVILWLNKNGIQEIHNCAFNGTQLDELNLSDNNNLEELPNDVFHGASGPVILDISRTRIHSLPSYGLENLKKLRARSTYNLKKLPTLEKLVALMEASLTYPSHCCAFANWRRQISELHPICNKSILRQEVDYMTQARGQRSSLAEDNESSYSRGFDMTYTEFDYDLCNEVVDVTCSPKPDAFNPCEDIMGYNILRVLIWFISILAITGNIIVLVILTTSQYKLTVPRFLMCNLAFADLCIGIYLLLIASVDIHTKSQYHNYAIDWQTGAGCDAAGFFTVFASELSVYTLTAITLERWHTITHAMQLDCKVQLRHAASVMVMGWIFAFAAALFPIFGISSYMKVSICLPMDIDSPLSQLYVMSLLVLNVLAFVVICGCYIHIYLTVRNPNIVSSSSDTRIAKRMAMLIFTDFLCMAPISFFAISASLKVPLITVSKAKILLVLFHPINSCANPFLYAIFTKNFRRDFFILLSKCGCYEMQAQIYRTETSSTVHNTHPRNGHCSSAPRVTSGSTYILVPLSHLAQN
Experimental: The expression vectors for human TSHR and LHR are described in Jaschke et al., J Biol Chem 281:9841-9844. The FSHR cDNA in pcDNA3.1 was obtained from the Missouri S&T cDNA Resource Center (www.cDNA.org) and was subcloned into the pcDNA3.1(−)/hygromycin vector. HEK-EM 293 cells were transfected with the cDNA of TSHR, LHCGR or FSHR using FuGENE 6 Transfection reagent (Roche Diagnostics). Hygromycin (250 μg/ml) was used as selection marker.
(§1) Transiently transfected cells were cultured for 48 hours before the cAMP assay. HEK-EM 293 cells stably expressing TSHR, LHCGR or FSHR were seeded into 24-well plates with a density of 2.2×10^5 cells/well 24 hours before the cAMP assay. After removal of growth medium, cells were incubated for 1 hour in HBSS (Cellgro) with 10 mM HEPES (Cellgro) containing 1 mM 3-isobutyl-1-methylxanthine (IBMX) (Sigma) and the ligand of interest in a humidified 5% CO2 incubator at 37° C. The intracellular cAMP content was determined with the cAMP Biotrak Enzymeimmunoassay (EIA) System (GE Healthcare). Data were analyzed using GraphPad Prism 4 for Windows. Receptor expression was measured as described in Jaschke et al., J Biol Chem 281:9841-9844.

[2] = system: TSHR mutant M9; assay: cAMP production in HEK-EM 293 cells transiently expressing TSHR mutant M9; type: cell-based, human; conditions: 30 μM compound
Experimental: HEK-EM 293 cells were grown in Dulbecco's modified Eagle's Medium (DMEM) supplemented with 10% fetal bovine serum, 100 units/ml penicillin and 10 μg/ml streptomycin (Life Technologies Inc.) at 37° C. in a humidified 5% CO2 incubator. Cells were transiently transfected with wild type TSHR and mutant receptors in 24-well plates (7.5×10^4 cells per well) with 0.4 μg DNA/well using FuGENE™ 6 reagent (Roche) according to the manufacturer's protocol.
The M9 mutant is described in Jaschke et al., J Biol Chem 281:9841-9844. The Y7.42A mutant was introduced into hTSHR-pcDNA3.1 via the QuickChange XL Site-Directed Mutagenesis kit (Stratagene). The construct was verified by sequencing (MWG Biotech).
as §1, with “After removal of growth medium, cells were incubated for 1 hour in HBSS (Cellgro) with 10 mM HEPES (Cellgro) containing 1 mM 3-isobutyl-1-methylxanthine (IBMX) (Sigma) and the ligand of interest in a humidified 5% CO2 incubator at 37° C.” left out

[3] = system: thyroperoxidase (TPO) mRNA expression in human thyrocytes; assay: TPO mRNA expression in primary cultures of human thyrocytes; type: cell-based; design: inhibition of TSH-stimulated increase of TPO mRNA expression: dose or concentration left out as unconfirmed
Experimental: Thyroid tissue samples were obtained through the NIH Clinical Center during surgery for unrelated reasons. Patients provided informed consent on an IRB approved protocol and materials were received anonymously via approval of research activity through the Office of Human Subjects Research. The specimens were maintained in HBSS on ice and isolation of cells was initiated within 4 hours after surgery. All preparations were performed under sterile conditions. Tissue samples were minced into small pieces by fine surgical forceps and scissors in a 10 cm dish with a small volume of HBSS. Tissue pieces were transferred to a 15 ml tube (Falcon) and washed at least 3 times with HBSS. Afterward, tissue pieces were incubated with HBSS containing 3 mg/ml Collagenase Type IV (Gibco). Enzymatic digestion proceeded for 30 minutes or longer with constant shaking in a water bath at 37° C. until a suspension of isolated cells was obtained. After centrifugation for 5 minutes at 1000 rpm, the supernatant was removed and cells were resuspended in 10 ml DMEM with 10% FBS. Cells were plated in 10 cm tissue culture dishes and incubated at 37° C. in a humidified 5% CO2 incubator. After 24 hours, the supernatant containing non-adherent cells was removed. The primary cultures of thyroid cells formed a confluent monolayer within 5-7 days. […]

- activity at FSHR [1]: no activity
- inhibition of TSH-stimulated increase of TPO mRNA expression ([3]; 1 hour pretreatment, 24 hours with TSH, thyrocytes from two donors): inhibited
- inhibition of TsAb-stimulated TPO mRNA expression ([3]; Graves' disease sera 1:50, 10 μM compound, 24 hours): inhibited
Compound: COC/C=C/c1ccc(-c2nc(SC)nc3sc(C(=O)NC(C)(C)C)c(N)c23)cc1 [Compound 52]
- cAMP production, fold over TSHR basal activity, M9 [2]: 13.2±1.7 fold
